Where “and” joins values, the source holds several entries; their conditions need not be identical. Equal values may be shown once.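 Values below derive from 48-hour exposures of cells grown in 96-well plates, with endpoints linearly interpolated between the two concentrations bracketing the appropriate inhibition level. At the GI50, growth is halved. Definition used: TGI = concentration required for complete inhibition of growth.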
Legend:
Test in all cases: NCI anticancer screen, dose series, 48 h
[1] = tested on: EKVX NSCLC
[2] = tested on: HCT-116 colon
[3] = tested on: HL-60(TB) leukemia
[4] = tested on: MDA-MB-231 breast
[5] = tested on: NCI-H226 lung
[6] = tested on: SF-295 CNS
[7] = tested on: SK-OV-3 ovarian
[8] = tested on: SNB-75 CNS
[9] = tested on: SR leukemia
[10] = tested on: SW-620 colon

Compound | GI50 [1] [nM] | TGI [1] [nM] | GI50 [2] [nM] | TGI [2] | GI50 [3] [nM] | TGI [3] [nM] | GI50 [4] [nM] | TGI [4] [nM] | GI50 [5] [nM] | TGI [5] [nM] | GI50 [6] [nM] | TGI [6] [nM] | GI50 [7] [nM] | TGI [7] [nM] | GI50 [8] [nM] | TGI [8] [nM] | GI50 [9] [nM] | TGI [9] [nM] | GI50 [10] [nM] | TGI [10]
O=C1CCc2c(sc3[nH]c(=S)n(Cc4ccccc4)c(=O)c23)C1 | 3580 | > 100000 | 3380 | > 100000 nM | 1950 | 20200 | 4540 | > 100000 | 4050 | > 100000 | 2460 | 7230 | 2680 | 7050 | 2340 | > 100000 | 2300 | 8220 | 4200 | > 100000 nM
COc1cnc2c(c1)C(=O)c1c-2n(CCCN2CCCC2)c(=O)c2cc(F)ccc12 | 407 | 4240 | 153 | 663 nM | 311 | 1130 | 926 | 2960 | 164 | 382 | 202 | 755 | 272 | 986 | 327 | 5440 | 144 | 1260 | 199 | 2270 nM
CCc1nc(Cl)nc(Cl)c1Cl |  | 38700 |  | 4620 nM |  | 3590 |  | 13100 |  | 14900 |  | 23100 |  | 18400 |  | 18300 |  | 444 |  | 5170 nM
C=C(C)[C@@H]1CC[C@]2(COC3CCCCO3)CC[C@]3(C)[C@H](CC[C@@H]4[C@@]5(C)C=C(C=O)C(=O)C(C)(C)[C@@H]5CC[C@]43C)[C@@H]12 (stereo partly specified) | 1620 | 3320 | 1310 | 2590 nM | 1560 | 5370 | 1810 | 3820 | 1950 | 4430 | 1500 | 2960 | 1840 | 3320 |  |  | 1520 | 6780 | 1130 | 2870 nM
O=C1/C(=C/c2ccccc2)CN(C(=O)OCc2ccccc2)C/C1=C\c1ccccc1 |  | > 31600 | 484 | 1630 nM and 2630 nM |  | 5430 |  | 50400 |  | 35200 | 3630 | 26700 |  | 40500 |  | > 31600 |  | 12300 | 1440 | 3720 nM and 15500 nM
C#Cc1cccc(Nc2nc3ccc([N+](=O)[O-])cc3nc2Nc2cccc(C#C)c2)c1 | 249 | 987 | 214 | 715 nM | 299 | 788 | 281 | 807 | 251 | 1200 | 172 | 416 | 257 | 862 | 175 | 653 | 318 | 1300 | 291 | 1090 nM
O=C(OCc1ccc2c(Cl)cc(Cl)c(O)c2n1)c1cc2ccccc2[nH]1 | 1490 | 3000 | 174 | 372 nM | 374 | 1690 | 422 | 1520 | 1480 | 3070 | 1640 | 3310 | 3600 | 13300 | 583 | 1970 | 324 | 1920 | 241 | 613 nM

— PubChem BioAssay (NCI)
